Source: patent US9567318B2, “Substituted pyrimidine compounds and uses thereof” (Memorial Sloan-Kettering Cancer Center, priority 2009, dated 2017)

Tested on: Hsp70 species from SKBr3 cancer cell extracts
Test: Hsp70 competition assay using YK55 beads, SKBr3 extracts
Assay type: binding, human
Description: FIG. 14. YK5 has a higher affinity for tumor Hsp70s and selectively kills cancer cells. (a-c) Cells were treated with the indicated concentrations of inhibitors for the times presented, and metabolically viable cells by Alamar blue uptake as described in Methods (a). Molecular markers of apoptosis (PARP and caspase-3 cleavage) were analyzed in cells treated for 24 h with indicated concentrations of inhibitors, by western blotting (b, c). Morphology of cells treated for 24 h with vehicle or the indicated inhibitors was analyzed by light microscopy (c). (d) Extracts (500 μg) were incubated overnight with beads containing D-biotin (75 μM) or the indicated concentrations of YK55 added to 50 μl streptavidin beads. HS=heat shocked. (e) SKBr3 (200 μg) and MRC-5 (400 μg) extracts and recombinant human Hsp70 (2 μg) were incubated for 3 h with the indicated concentrations with YK5, followed by precipitation of Hsp70 complexes on YK55-beads (50 μM YK55 added to 50 μl streptavidin beads). Data obtained from three independent experiments were graphed (right). Points, mean; bars, s.d.
In a second experiment, the ability of soluble YK5 to compete YK55-binding to normal and cancer cell Hsp70 species were tested (FIG. 14e). […] Interaction of YK5 was even weaker with recombinant human Hsp70 (FIG. 14e).
Hsp70 Competition Assay Using the YK55 Beads. […]

C=CC(=O)Nc1cc(N)nc(Sc2c(OC)nc(N3CCN(C)CC3)nc2OC)n1 [YK5, N-(6-amino-2-(4,6-dimethoxy-2-(4-methylpiperazin-1-yl)pyrimidin-5-ylthio)pyrimidin-4-yl)acrylamide]
concentration competing binding of YK55-beads to Hsp70: low micromolar concentrations
